± gives the expanded uncertainty stated by the source.
Test: activity coefficient (dimensionless); of the first substance listed, at infinite dilution; xn = mol fraction of the nth substance listed
Settings: 101.33 kPa, Liquid, Chromatography, x1 = 0

| SMILES | activity coefficient (313.15 K) | activity coefficient (323.15 K) | activity coefficient (333.15 K) | activity coefficient (343.15 K) | activity coefficient (353.15 K) | activity coefficient (373.15 K) |
| --- | --- | --- | --- | --- | --- | --- |
| c1ccsc1 [thiophene] + CO[PH](=O)[O-].Cn1cc[n+](C)c1 | 2.47 ± 0.17 | 2.54 ± 0.17 | 2.58 ± 0.18 | 2.6 ± 0.18 |  |  |
| C1CCCCCC1 [cycloheptane] + CCn1cc[n+](C)c1.CO[PH](=O)[O-] | 98.8 ± 6.8 |  | 180 ± 12 |  | 303 ± 21 | 438 ± 30 |
| CO [methanol] + CCn1cc[n+](C)c1.CO[PH](=O)[O-] |  |  | 0.072 ± 0.03 |  | 0.078 ± 0.03 | 0.088 ± 0.03 |
| CCN(CC)CC [triethylamine] + CO[PH](=O)[O-].Cn1cc[n+](C)c1 | 9.04 ± 0.62 | 12.7 ± 0.9 |  |  |  |  |
| CC#N [acetonitrile] + CCn1cc[n+](C)c1.CO[PH](=O)[O-] | 1.08 ± 0.07 |  | 1.11 ± 0.07 |  | 1.19 ± 0.08 | 1.25 ± 0.08 |
| CCO [ethanol] + CO[PH](=O)[O-].Cn1cc[n+](C)c1 |  |  |  | 0.16 ± 0.03 |  |  |
| c1ccncc1 [pyridine] + CO[PH](=O)[O-].Cn1cc[n+](C)c1 | 2.15 ± 0.15 | 2.16 ± 0.15 | 2.17 ± 0.15 | 2.19 ± 0.15 |  |  |
| C1COCCO1 [1,4-dioxane] + CCn1cc[n+](C)c1.CO[PH](=O)[O-] | 3.4 ± 0.23 |  | 3.55 ± 0.24 |  | 3.87 ± 0.26 | 4.33 ± 0.29 |
| CCCCO [butan-1-ol] + CCn1cc[n+](C)c1.CO[PH](=O)[O-] |  |  |  |  | 0.308 ± 0.031 | 0.324 ± 0.032 |
| c1ccncc1 [pyridine] + CCn1cc[n+](C)c1.CO[PH](=O)[O-] | 1.77 ± 0.12 |  | 1.84 ± 0.12 |  | 1.95 ± 0.13 | 2 ± 0.14 |
| CCC(C)=O [butanone] + CO[PH](=O)[O-].Cn1cc[n+](C)c1 | 5.52 ± 0.38 | 5.16 ± 0.35 | 4.66 ± 0.32 | 4.17 ± 0.28 |  |  |
| c1ccccc1 [benzene] + CO[PH](=O)[O-].Cn1cc[n+](C)c1 | 5.69 ± 0.39 | 5.58 ± 0.38 | 5.52 ± 0.38 | 5.43 ± 0.37 |  |  |
| CCC(=O)CC [pentan-3-one] + CO[PH](=O)[O-].Cn1cc[n+](C)c1 | 10.2 ± 0.7 | 10.1 ± 0.7 | 10.1 ± 0.7 | 10 ± 0.7 |  |  |
| ClCCl [dichloromethane] + CO[PH](=O)[O-].Cn1cc[n+](C)c1 | 0.57 ± 0.04 | 0.65 ± 0.04 | 0.72 ± 0.05 | 0.77 ± 0.05 |  |  |
| CCCO [propan-1-ol] + CO[PH](=O)[O-].Cn1cc[n+](C)c1 |  |  |  | 0.25 ± 0.03 |  |  |
| CC1CCCCC1 [methylcyclohexane] + CO[PH](=O)[O-].Cn1cc[n+](C)c1 | 257 ± 18 |  |  |  |  |  |
| C#CCCCC [1-hexyne] + CCn1cc[n+](C)c1.CO[PH](=O)[O-] | 6.24 ± 0.43 |  | 6.73 ± 0.46 |  | 7.14 ± 0.49 | 7.56 ± 0.52 |
| CCCO [propan-1-ol] + CCn1cc[n+](C)c1.CO[PH](=O)[O-] |  |  |  |  | 0.207 ± 0.029 | 0.214 ± 0.029 |
| CCCC(C)=O [pentan-2-one] + CO[PH](=O)[O-].Cn1cc[n+](C)c1 | 10.6 ± 0.7 | 10.5 ± 0.7 | 10.3 ± 0.7 | 10.1 ± 0.7 |  |  |
| CC(C)O [propan-2-ol] + CCn1cc[n+](C)c1.CO[PH](=O)[O-] |  |  | 0.261 ± 0.03 |  | 0.294 ± 0.031 | 0.314 ± 0.031 |
| C[N+](=O)[O-] [nitromethane] + CCn1cc[n+](C)c1.CO[PH](=O)[O-] | 0.75 ± 0.049 |  | 0.787 ± 0.051 |  | 0.831 ± 0.054 | 0.873 ± 0.056 |
| C#CCCCCC [1-heptyne] + CCn1cc[n+](C)c1.CO[PH](=O)[O-] | 10.2 ± 0.7 |  | 11.1 ± 0.8 |  | 11.8 ± 0.8 | 12 ± 0.8 |
| Cc1ccccc1 [toluene] + CCn1cc[n+](C)c1.CO[PH](=O)[O-] | 6.53 ± 0.45 |  | 6.63 ± 0.45 |  | 6.82 ± 0.46 | 7.16 ± 0.49 |
| ClC(Cl)Cl [trichloromethane] + CO[PH](=O)[O-].Cn1cc[n+](C)c1 | 0.39 ± 0.03 | 0.43 ± 0.04 | 0.48 ± 0.04 | 0.51 ± 0.04 |  |  |
| Cc1cccc(C)c1 [1,3-dimethylbenzene] + CO[PH](=O)[O-].Cn1cc[n+](C)c1 | 24.5 ± 1.7 | 24.4 ± 1.7 | 23.6 ± 1.6 | 23.1 ± 1.6 |  |  |
| c1ccsc1 [thiophene] + CCn1cc[n+](C)c1.CO[PH](=O)[O-] | 1.99 ± 0.14 |  | 2.16 ± 0.15 |  | 2.5 ± 0.17 | 2.64 ± 0.18 |

| SMILES | activity coefficient (313.15 K) | activity coefficient (323.15 K) | activity coefficient (333.15 K) | activity coefficient (343.15 K) | activity coefficient (353.15 K) | activity coefficient (373.15 K) |
| --- | --- | --- | --- | --- | --- | --- |
| CCCC(C)=O [pentan-2-one] + CCn1cc[n+](C)c1.CO[PH](=O)[O-] | 6.12 ± 0.42 |  | 6.13 ± 0.42 |  | 6.15 ± 0.42 | 6.18 ± 0.42 |
| C#CCCCC [1-hexyne] + CO[PH](=O)[O-].Cn1cc[n+](C)c1 | 12.7 ± 0.87 | 13 ± 0.88 | 13.4 ± 0.91 | 13.7 ± 0.93 |  |  |
| CC#N [acetonitrile] + CO[PH](=O)[O-].Cn1cc[n+](C)c1 | 1.1 ± 0.07 | 1.11 ± 0.07 | 1.12 ± 0.07 | 1.12 ± 0.07 |  |  |
| ClC(Cl)(Cl)Cl [tetrachloromethane] + CCn1cc[n+](C)c1.CO[PH](=O)[O-] | 4.38 ± 0.3 |  | 4.96 ± 0.34 |  |  |  |
| CCCCCCCCCCCCC [tridecane] + CO[PH](=O)[O-].Cn1cc[n+](C)c1 | 2380 ± 160 | 2220 ± 150 | 2160 ± 150 | 2120 ± 150 |  |  |
| CCC(C)=O [butanone] + CCn1cc[n+](C)c1.CO[PH](=O)[O-] | 3.49 ± 0.24 |  | 3 ± 0.2 |  | 2.56 ± 0.17 | 2.37 ± 0.16 |
| Cc1cccc(C)c1 [1,3-dimethylbenzene] + CCn1cc[n+](C)c1.CO[PH](=O)[O-] | 18.6 ± 1.3 |  | 18.8 ± 1.3 |  | 20.4 ± 1.4 | 24.9 ± 1.7 |
| C[N+](=O)[O-] [nitromethane] + CO[PH](=O)[O-].Cn1cc[n+](C)c1 | 0.8 ± 0.05 | 0.81 ± 0.05 | 0.82 ± 0.05 | 0.83 ± 0.05 |  |  |
| CC1CCCCC1 [methylcyclohexane] + CCn1cc[n+](C)c1.CO[PH](=O)[O-] | 211 ± 15 |  | 70.8 ± 4.9 |  |  |  |
| CCCCCCCC [octane] + CCn1cc[n+](C)c1.CO[PH](=O)[O-] | 461 ± 32 |  |  |  |  |  |
| CCCCCCCCCCCC [dodecane] + CO[PH](=O)[O-].Cn1cc[n+](C)c1 | 2350 ± 160 | 1920 ± 130 | 1790 ± 120 |  |  |  |
| CCCCCCCCCCCCCC [tetradecane] + CCn1cc[n+](C)c1.CO[PH](=O)[O-] | 3490 ± 240 |  | 3010 ± 210 |  | 2610 ± 180 | 2270 ± 160 |
| CCC[N+](=O)[O-] [1-nitropropane] + CO[PH](=O)[O-].Cn1cc[n+](C)c1 | 3.41 ± 0.23 | 3.35 ± 0.23 | 3.29 ± 0.22 | 3.29 ± 0.22 |  |  |
| CCCCCCCCCCCCCC [tetradecane] + CO[PH](=O)[O-].Cn1cc[n+](C)c1 | 3560 ± 250 | 3220 ± 220 | 2980 ± 210 | 2890 ± 200 |  |  |
| c1ccccc1 [benzene] + CCn1cc[n+](C)c1.CO[PH](=O)[O-] | 3.44 ± 0.23 |  | 3.52 ± 0.24 |  | 3.61 ± 0.25 | 3.75 ± 0.26 |
| ClC(Cl)(Cl)Cl [tetrachloromethane] + CO[PH](=O)[O-].Cn1cc[n+](C)c1 | 6.57 ± 0.45 | 6.83 ± 0.47 | 7.03 ± 0.48 |  |  |  |
| Cc1ccc(C)cc1 [1,4-dimethylbenzene] + CCn1cc[n+](C)c1.CO[PH](=O)[O-] | 16.9 ± 1.2 |  | 18 ± 1.2 |  | 19.3 ± 1.3 | 21.9 ± 1.5 |
| CC1CCCC1 [methylcyclopentane] + CCn1cc[n+](C)c1.CO[PH](=O)[O-] | 76 ± 5 |  |  |  |  |  |
| CCCCCCCCCC [decane] + CCn1cc[n+](C)c1.CO[PH](=O)[O-] | 882 ± 61 |  | 704 ± 48 |  | 582 ± 40 |  |
| CCc1ccccc1 [ethylbenzene] + CO[PH](=O)[O-].Cn1cc[n+](C)c1 | 22.7 ± 1.6 | 22.1 ± 1.5 | 21.7 ± 1.5 | 21.5 ± 1.5 |  |  |
| CCCCCCCCCCC [undecane] + CO[PH](=O)[O-].Cn1cc[n+](C)c1 | 1530 ± 110 | 1470 ± 100 | 1400 ± 97 | 1330 ± 92 |  |  |
| CC(C)CO [2-methyl-1-propanol] + CCn1cc[n+](C)c1.CO[PH](=O)[O-] |  |  |  |  | 0.292 ± 0.031 | 0.309 ± 0.031 |
| C1CCCCC1 [cyclohexane] + CO[PH](=O)[O-].Cn1cc[n+](C)c1 | 129 ± 9 |  |  |  |  |  |
| C1CCCCCC1 [cycloheptane] + CO[PH](=O)[O-].Cn1cc[n+](C)c1 | 250 ± 17 |  |  |  |  |  |
| Cc1ccc(C)cc1 [1,4-dimethylbenzene] + CO[PH](=O)[O-].Cn1cc[n+](C)c1 | 23.4 ± 1.6 | 23.4 ± 1.6 | 22.7 ± 1.6 | 22 ± 1.5 |  |  |

Source: the NIST ThermoML archive (doi:10.1016/j.jct.2015.02.023)
